Data taken from PubChem BioAssay (NCI).
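Growth conditions: 96-well plates. Treatment: test compound, 48 hours, 5 concentrations. Analysis: linear interpolation between bracketing concentrations; unreached endpoints set to highest concentration. At the GI50, growth is halved. TGI marks complete inhibition of growth.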

How the values were obtained:
Assay in all cases: inhibition of tumour cell growth, NCI panel, 48 h
NCI/ADR-RES ovarian = system: NCI/ADR-RES ovarian
OVCAR-5 ovarian = system: OVCAR-5 ovarian
OVCAR-3 ovarian = system: OVCAR-3 ovarian
SF-539 CNS = system: SF-539 CNS
MDA-MB-435 = system: MDA-MB-435
OVCAR-8 ovarian = system: OVCAR-8 ovarian
EKVX NSCLC = system: EKVX NSCLC
UO-31 renal = system: UO-31 renal
U251 CNS = system: U251 CNS
HCC-2998 colon = system: HCC-2998 colon
KM12 colon = system: KM12 colon
SK-MEL-5 melanoma = system: SK-MEL-5 melanoma
SK-MEL-28 melanoma = system: SK-MEL-28 melanoma
HT29 colon = system: HT29 colon
NCI-H23 lung = system: NCI-H23 lung
HL-60(TB) leukemia = system: HL-60(TB) leukemia
MOLT-4 leukemia = system: MOLT-4 leukemia
ACHN renal = system: ACHN renal
BT-549 breast = system: BT-549 breast
COLO 205 colon = system: COLO 205 colon
SW-620 colon = system: SW-620 colon
SK-OV-3 ovarian = system: SK-OV-3 ovarian
IGROV1 ovarian = system: IGROV1 ovarian
TK-10 renal = system: TK-10 renal
SF-268 CNS = system: SF-268 CNS
SK-MEL-2 melanoma = system: SK-MEL-2 melanoma
CAKI-1 renal = system: CAKI-1 renal
A549 NSCLC = system: A549 NSCLC
OVCAR-4 ovarian = system: OVCAR-4 ovarian
A498 renal = system: A498 renal
PC-3 prostate = system: PC-3 prostate
SF-295 CNS = system: SF-295 CNS
MALME-3M melanoma = system: MALME-3M melanoma
MCF7 breast = system: MCF7 breast
NCI-H460 lung = system: NCI-H460 lung
UACC-257 melanoma = system: UACC-257 melanoma
T-47D breast = system: T-47D breast
CCRF-CEM leukemia = system: CCRF-CEM leukemia
SNB-19 CNS = system: SNB-19 CNS
HS 578T breast = system: HS 578T breast
SNB-75 CNS = system: SNB-75 CNS
HCT-15 colon = system: HCT-15 colon
LOX IMVI melanoma = system: LOX IMVI melanoma
RXF 393 renal = system: RXF 393 renal
UACC-62 melanoma = system: UACC-62 melanoma
SN12C renal = system: SN12C renal
RPMI-8226 leukemia = system: RPMI-8226 leukemia
DU-145 prostate = system: DU-145 prostate
HCT-116 colon = system: HCT-116 colon
MDA-MB-231 breast = system: MDA-MB-231 breast
NCI-H226 lung = system: NCI-H226 lung
SR leukemia = system: SR leukemia
K-562 leukemia = system: K-562 leukemia
M14 melanoma = system: M14 melanoma
HOP-62 NSCLC = system: HOP-62 NSCLC
786-0 renal = system: 786-0 renal
NCI-H522 lung = system: NCI-H522 lung

## O=C(CSc1nc2ccccc2[nH]1)Nc1ccc(-c2nc3ccccc3s2)c(Cl)c1
NCI/ADR-RES ovarian
  GI50: 4.41 µM
  TGI: > 100 µM
OVCAR-5 ovarian
  GI50: 3.63 µM
  TGI: 13.6 µM
OVCAR-3 ovarian
  GI50: 2.17 µM
  TGI: 4.55 µM
SF-539 CNS
  GI50: 1.7 µM
  TGI: 3.25 µM
MDA-MB-435
  GI50: 3.89 µM
  TGI: > 100 µM
OVCAR-8 ovarian
  GI50: 3.35 µM
  TGI: > 100 µM
EKVX NSCLC
  GI50: 6.82 µM
  TGI: > 100 µM
UO-31 renal
  GI50: 2.16 µM
  TGI: 13.7 µM
U251 CNS
  GI50: 1.85 µM
  TGI: 4.33 µM
HCC-2998 colon
  GI50: 2.77 µM
  TGI: 9.4 µM
KM12 colon
  GI50: 2.67 µM
  TGI: 8.1 µM
SK-MEL-5 melanoma
  GI50: 3.12 µM
  TGI: > 100 µM
SK-MEL-28 melanoma
  GI50: 2.73 µM
  TGI: 7.59 µM
HT29 colon
  GI50: 4.79 µM
  TGI: > 100 µM
NCI-H23 lung
  GI50: 1.88 µM
  TGI: 4.27 µM
HL-60(TB) leukemia
  GI50: > 100 µM
  TGI: > 100 µM
MOLT-4 leukemia
  GI50: > 100 µM
  TGI: > 100 µM
ACHN renal
  GI50: 4.52 µM
  TGI: 57.4 µM
BT-549 breast
  GI50: 7.69 µM
  TGI: > 100 µM
COLO 205 colon
  GI50: 4.16 µM
  TGI: 51.4 µM
SW-620 colon
  GI50: 4.78 µM
  TGI: > 100 µM
SK-OV-3 ovarian
  GI50: 2.72 µM
  TGI: 12 µM
IGROV1 ovarian
  GI50: 1.6 µM
  TGI: 4.99 µM
TK-10 renal
  GI50: 4.67 µM
  TGI: 76.6 µM
SF-268 CNS
  GI50: 1.88 µM
  TGI: 4.37 µM
SK-MEL-2 melanoma
  GI50: 7.44 µM
  TGI: > 100 µM
CAKI-1 renal
  GI50: 4.17 µM
  TGI: > 100 µM
A549 NSCLC
  GI50: 3.25 µM
  TGI: > 100 µM
OVCAR-4 ovarian
  GI50: 2.56 µM
  TGI: > 100 µM
A498 renal
  GI50: 2.22 µM
  TGI: 52.7 µM
PC-3 prostate
  GI50: 2.83 µM
  TGI: > 100 µM
SF-295 CNS
  GI50: 3.63 µM
  TGI: > 100 µM
MALME-3M melanoma
  GI50: 2.59 µM
  TGI: 8.92 µM
MCF7 breast
  GI50: 3.58 µM
  TGI: > 100 µM
NCI-H460 lung
  GI50: 3.47 µM
  TGI: > 100 µM
UACC-257 melanoma
  GI50: 4.08 µM
  TGI: > 100 µM
T-47D breast
  GI50: 1.71 µM
  TGI: 6.05 µM
CCRF-CEM leukemia
  GI50: > 100 µM
  TGI: > 100 µM
SNB-19 CNS
  GI50: 5.44 µM
  TGI: 65.8 µM
HS 578T breast
  GI50: 4.5 µM
  TGI: > 100 µM
SNB-75 CNS
  GI50: 6.58 µM
  TGI: > 100 µM
HCT-15 colon
  GI50: 23.8 µM
  TGI: > 100 µM
LOX IMVI melanoma
  GI50: 4.95 µM
  TGI: > 100 µM
RXF 393 renal
  GI50: 2.66 µM
  TGI: 8.85 µM

## CC(=O)C(C(C)=O)=C1CCCC(O)O1 (configuration not stated)
NCI/ADR-RES ovarian
  TGI: > 100 µM
OVCAR-5 ovarian
  TGI: > 100 µM
UACC-62 melanoma
  TGI: > 100 µM
SN12C renal
  TGI: > 100 µM
SF-539 CNS
  TGI: > 100 µM
MDA-MB-435
  TGI: > 100 µM
OVCAR-8 ovarian
  TGI: > 100 µM
RPMI-8226 leukemia
  TGI: > 100 µM
EKVX NSCLC
  TGI: > 100 µM
UO-31 renal
  TGI: > 100 µM
U251 CNS
  TGI: > 100 µM
HCC-2998 colon
  TGI: > 100 µM
DU-145 prostate
  TGI: > 100 µM
KM12 colon
  TGI: > 100 µM
SK-MEL-5 melanoma
  TGI: > 100 µM
SK-MEL-28 melanoma
  TGI: > 100 µM
HT29 colon
  TGI: > 100 µM
HCT-116 colon
  TGI: > 100 µM
NCI-H23 lung
  TGI: > 100 µM
HL-60(TB) leukemia
  TGI: > 100 µM
MOLT-4 leukemia
  TGI: > 100 µM
ACHN renal
  TGI: > 100 µM
MDA-MB-231 breast
  TGI: > 100 µM
COLO 205 colon
  TGI: > 100 µM
SW-620 colon
  TGI: > 100 µM
NCI-H226 lung
  TGI: > 100 µM
SR leukemia
  TGI: > 100 µM
K-562 leukemia
  TGI: > 100 µM
SK-OV-3 ovarian
  TGI: > 100 µM
IGROV1 ovarian
  TGI: > 100 µM
TK-10 renal
  TGI: > 100 µM
SF-268 CNS
  TGI: > 100 µM
A549 NSCLC
  TGI: > 100 µM
OVCAR-4 ovarian
  TGI: > 100 µM
A498 renal
  TGI: > 100 µM
SF-295 CNS
  TGI: > 100 µM
MALME-3M melanoma
  TGI: > 100 µM
MCF7 breast
  TGI: > 100 µM
M14 melanoma
  TGI: > 100 µM
HOP-62 NSCLC
  TGI: > 100 µM
NCI-H460 lung
  TGI: > 100 µM
UACC-257 melanoma
  TGI: > 100 µM
T-47D breast
  TGI: > 100 µM
CCRF-CEM leukemia
  TGI: > 100 µM
SNB-19 CNS
  TGI: > 100 µM
HS 578T breast
  TGI: > 100 µM
SNB-75 CNS
  TGI: > 100 µM
HCT-15 colon
  TGI: > 100 µM
786-0 renal
  TGI: > 100 µM
RXF 393 renal
  TGI: > 100 µM

## Cc1ccc2[nH]cc(-c3nc(-c4c[nH]c5ncccc45)cs3)c2c1
NCI/ADR-RES ovarian
  GI50: > 100 µM
  TGI: > 100 µM
OVCAR-5 ovarian
  GI50: > 100 µM
  TGI: > 100 µM
UACC-62 melanoma
  GI50: > 100 µM
  TGI: > 100 µM
SN12C renal
  GI50: > 100 µM
  TGI: > 100 µM
OVCAR-3 ovarian
  GI50: > 100 µM
  TGI: > 100 µM
SF-539 CNS
  GI50: > 100 µM
  TGI: > 100 µM
MDA-MB-435
  GI50: > 100 µM
  TGI: > 100 µM
OVCAR-8 ovarian
  GI50: > 100 µM
  TGI: > 100 µM
RPMI-8226 leukemia
  GI50: > 100 µM
  TGI: > 100 µM
UO-31 renal
  GI50: 0.244 µM
  TGI: > 100 µM
U251 CNS
  GI50: > 100 µM
  TGI: > 100 µM
HCC-2998 colon
  GI50: > 100 µM
  TGI: > 100 µM
KM12 colon
  GI50: > 100 µM
  TGI: > 100 µM
SK-MEL-5 melanoma
  GI50: > 100 µM
  TGI: > 100 µM
SK-MEL-28 melanoma
  GI50: > 100 µM
  TGI: > 100 µM
HCT-116 colon
  GI50: > 100 µM
  TGI: > 100 µM
NCI-H23 lung
  GI50: > 100 µM
  TGI: > 100 µM
HL-60(TB) leukemia
  GI50: > 100 µM
  TGI: > 100 µM
MOLT-4 leukemia
  GI50: > 100 µM
  TGI: > 100 µM
ACHN renal
  GI50: > 100 µM
  TGI: > 100 µM
BT-549 breast
  GI50: > 100 µM
  TGI: > 100 µM
NCI-H522 lung
  GI50: > 100 µM
  TGI: > 100 µM
MDA-MB-231 breast
  GI50: > 100 µM
  TGI: > 100 µM
COLO 205 colon
  GI50: 0.349 µM
  TGI: > 100 µM
SW-620 colon
  GI50: > 100 µM
  TGI: > 100 µM
NCI-H226 lung
  GI50: > 100 µM
  TGI: > 100 µM
SK-OV-3 ovarian
  GI50: > 100 µM
  TGI: > 100 µM
IGROV1 ovarian
  GI50: > 100 µM
  TGI: > 100 µM
TK-10 renal
  GI50: > 100 µM
  TGI: > 100 µM
SF-268 CNS
  GI50: > 100 µM
  TGI: > 100 µM
SK-MEL-2 melanoma
  GI50: > 100 µM
  TGI: > 100 µM
A549 NSCLC
  GI50: > 100 µM
  TGI: > 100 µM
OVCAR-4 ovarian
  GI50: > 100 µM
  TGI: > 100 µM
A498 renal
  GI50: 3.11 µM
  TGI: > 100 µM
PC-3 prostate
  GI50: > 100 µM
  TGI: > 100 µM
SF-295 CNS
  GI50: > 100 µM
  TGI: > 100 µM
MCF7 breast
  GI50: > 100 µM
  TGI: > 100 µM
M14 melanoma
  GI50: > 100 µM
  TGI: > 100 µM
HOP-62 NSCLC
  GI50: > 100 µM
  TGI: > 100 µM
UACC-257 melanoma
  GI50: > 100 µM
  TGI: > 100 µM
T-47D breast
  GI50: > 100 µM
  TGI: > 100 µM
CCRF-CEM leukemia
  GI50: > 100 µM
  TGI: > 100 µM
SNB-19 CNS
  GI50: > 100 µM
  TGI: > 100 µM
HS 578T breast
  GI50: > 100 µM
  TGI: > 100 µM
SNB-75 CNS
  GI50: > 100 µM
  TGI: > 100 µM
HCT-15 colon
  GI50: > 100 µM
  TGI: > 100 µM
LOX IMVI melanoma
  GI50: > 100 µM
  TGI: > 100 µM
